27 molecules from US12377100B2 (GILEAD SCIENCES, INC., priority 2015, dated 2025) can be followed below.

Common to all, as to assay type: cell-based
Details in all cases: Homo sapiens, PBMC, 24 h, human PBMCs, 24 hours incubation

The subject of experiment [1] is IFNα. Put plainly: PBMC cytokine profiling assay, IFNα induction. The procedure:
(§1) Certain compounds disclosed herein we tested according to the procedure described below. Additionally, certain reference compounds were prepared and tested along with the compounds of the present disclosure.
(§2) Compounds were dissolved and stored in DMSO (Sigma-Aldrich, St. Louis, MO) at 10 mM concentration.
(§3) Cryopreserved human PBMCs isolated from healthy donors were purchased from StemCell Technologies (Vancouver, Canada). Cell culture medium used was RPMI with L-Glutamine (Mediatech, Manassas, VA) supplemented with 10% fetal bovine serum (Hyclone, GE Healthcare, Logan, UT) and Penicillin-Streptomycin (Mediatech). Human TNFα, IL12p40, and IFNα2a 384-well Assay capture plates, standards, buffers and processing reagents were obtained from MesoScale Discovery Technologies (MSD; Rockville, MD).
(§4) Cryopreserved human PBMCs (1×10e8 cells/ml) were thawed at 37° C. and resuspended in 25 mL warm cell culture medium. The cells were pelleted at 200×g (Beckman Avanti J-E) for 5 min and resuspended in 20 mL of fresh culture media. Cells were counted using a Cellometer (Nexcelcom Bioscience), adjusted to 2×10e6 cells, and incubated for 2 hours in an incubator set at 37° C., 5% CO2 to recover from cryopreservation. Compounds were serially diluted in DMSO at half-log steps to generate a 10-point dose range. Using a Bravo pipette equipped with a 384 well head (Agilent), 0.4 μL of compound was transferred to each well of a 384 well black, clear bottom plate (Greiner Bio-One, Germany) containing 30 μL of cell culture medium. Recovered PBMCs were then dispensed into the assay plate at 50 μL per well (100k cells/well) using the MicroFlow multichannel dispenser (Biotek). Final DMSO concentration was 0.5%. DMSO was used as the negative control. The plates were incubated for 24 hours at 37° C. PBMCs in the assay plate were pelleted by centrifugation (Beckman Avanti J-E) at 200×g for 5 min.
(§5) Using a Biomek FX 384 well pipetting station (Beckman), conditioned culture medium (CCM) from the assay plate was transferred to MSD capture plates customized for each cytokine. For IFNα and IL12-p40 detection, 25 μL and 20 μL of CCM were added directly to each capture plate, respectively. For TNFα detection, CCM was diluted 1:9 in fresh culture medium, and 20 μL of diluted CCM was used. Serially diluted calibration standards for each cytokine were used to generate standard curves and establish assay linearity. The plates were sealed and incubated overnight at 4° C. in a plate shaker (Titer Plate) set at 200 rpm. On the following day, antibodies specific for each cytokine were diluted 1:50 in MSD Diluent 100 antibody dilution buffer. Diluted antibodies were added to corresponding capture plates at 10 μL/well, and incubated at RT for 1-2 hrs in the shaker. The plates were washed with PBST buffer (3×, 60 μl/well) using a Biotek Multiflow plate washer. MSD Read Buffer diluted to 2× in deionized water and 35 μL/well was added via Biomek FX instrument. The plates were read immediately in a MSD6000 reader. Data were normalized to positive and negative controls in each assay plate. AC50 values represent compound concentrations at half-maximal effect based on normalized percent activation and calculated by non-linear regression using Pipeline Pilot software (Accelrys, San Diego, CA).

In experiment [2] the test system is TNFα. Put plainly: PBMC cytokine profiling assay, TNFα induction. The procedure: as §1, §2, §3, §4, §5
Experiment [3] concerns IL12p40. Put plainly: PBMC cytokine profiling assay, IL12-p40 induction. As to the method:
as §1, §2, §3, §4, §5

What is called AC50 is the concentration at which the activity in the assay is half-maximal. Higher therefore signals weaker potency. As to `CCCC[C@H](CNS(C)(=O)=O)Nc1nc(N)nc2cccnc12` [Example 52, (R)—N-(2-((2-aminopyrido[3,2-d]pyrimidin-4-yl)amino)hexyl)methanesulfonamide], the AC50 in experiment [1] was over 50 µM; in experiment [2] it was 3.2 µM; in experiment [3] it was 3.6 µM.

Regarding `CCCC[C@](C)(CNS(C)(=O)=O)Nc1nc(N)nc2cccnc12` [Example 53, (R)—N-(2-((2-aminopyrido[3,2-d]pyrimidin-4-yl)amino)-2-methylhexyl)methanesulfonamide], the figures for the AC50 in experiment [1], in experiment [2] and in experiment [3] were 3.9 µM, 0.26 µM and 0.28 µM, respectively.

Consider `CCCC[C@@H](Nc1nc(N)nc2cccnc12)C(=O)NCCO` [Example 54, (R)-2-((2-aminopyrido[3,2-d]pyrimidin-4-yl)amino)-N-(2-hydroxyethyl)hexanamide], for which the concentration at half-maximal activity (AC50) is over 50 µM in experiment [1], 34 µM in experiment [2] and 42.5 µM in experiment [3].

As for `CCCC[C@@H](Nc1nc(N)nc2cccnc12)c1ncc[nH]1` [Example 55, (R)—N^4-(1-(1H-imidazol-2-yl)pentyl)pyrido[3,2-d]pyrimidine-2,4-diamine], the figures for the AC50 in experiment [1], in experiment [2] and in experiment [3] were 28.8 µM, 23.9 µM and 21.5 µM, respectively.

For `CCCC[C@@H](Nc1nc(N)nc2cccnc12)c1nnc[nH]1` [Example 56, (R)—N^4-(1-(4H-1,2,4-triazol-3-yl)pentyl)pyrido[3,2-d]pyrimidine-2,4-diamine], the AC50 in experiment [1] came to 1.9 µM; in experiment [2], 3.6 µM; in experiment [3] it was 3.4 µM.

In the case of `CCCC[C@H](CO)Nc1nc(N)nc2c(C)ccnc12` [Example 57, (R)-2-((2-amino-8-methylpyrido[3,2-d]pyrimidin-4-yl)amino)hexan-1-ol], the AC50 was over 50 µM in experiment [1], 11 µM in experiment [2] and 9.7 µM in experiment [3].

Regarding `CCCC[C@@H](CO)Nc1nc(N)nc2c(C)ccnc12` [Example 58, (S)-2-((2-amino-8-methylpyrido[3,2-d]pyrimidin-4-yl)amino)hexan-1-ol], the half-maximal activity concentration (AC50) in experiment [1] came to 4.1 µM; in experiment [2], 3.9 µM; in experiment [3], 3.8 µM.

In the case of `CCCC[C@@](C)(CO)Nc1nc(N)nc2cccnc12` [Example 60, (S)-2-((2-aminopyrido[3,2-d]pyrimidin-4-yl)amino)-2-methylhexan-1-ol], the AC50 in experiment [1] was determined as 7.9 µM; in experiment [2], 2.6 µM; in experiment [3] it was 2.3 µM.

As for `CCCCC(C)(CO)Nc1nc(N)nc2cc(F)cnc12` (stereo not drawn) [Example 63, 2-((2-amino-7-fluoropyrido[3,2-d]pyrimidin-4-yl)amino)-2-methylhexan-1-ol], the results for the half-maximal activity concentration (AC50) in experiment [1], in experiment [2] and in experiment [3] were 22.4 µM, 0.41 µM and 0.43 µM, respectively.

Regarding `CCCC[C@](C)(CNC(C)=O)Nc1nc(N)nc2cc(C)cnc12` [Example 66, (R)—N-(2-((2-amino-7-methylpyrido[3,2-d]pyrimidin-4-yl)amino)-2-methylhexyl)acetamide], the figures for the AC50 in experiment [1], in experiment [2] and in experiment [3] were 1.6 µM, 0.04 µM and 0.03 µM, respectively.

For the molecule `CCC[C@@H](CO)Nc1nc(N)nc2cc(F)c(C)nc12` [Example 67, (S)-2-((2-amino-7-fluoro-6-methylpyrido[3,2-d]pyrimidin-4-yl)amino)pentan-1-ol], the figures for the AC50 in experiment [1], in experiment [2] and in experiment [3] were 23 µM, 6.3 µM and 3.9 µM, respectively.

As for `CCCC[C@H](CO)Nc1nc(N)nc2cc(O)cnc12` [Example 68, (R)-2-amino-4-((1-hydroxyhexan-2-yl)amino)pyrido[3,2-d]pyrimidin-7-ol], the AC50 was over 50 µM in experiment [1], 11.1 µM in experiment [2] and 14.2 µM in experiment [3].

With `C=Cc1cnc2c(N[C@@H](CO)CCCC)nc(N)nc2c1` [Example 70, (R)-2-((2-amino-7-vinylpyrido[3,2-d]pyrimidin-4-yl)amino)hexan-1-ol], the figures for the concentration at half-maximal activity (AC50) in experiment [1], in experiment [2] and in experiment [3] were over 50 µM, 3.3 µM and 2.7 µM, respectively.

With `CCCC[C@H](CO)Nc1nc(N)nc2cc(CC)cnc12` [Example 71, (R)-2-((2-amino-7-ethylpyrido[3,2-d]pyrimidin-4-yl)amino)hexan-1-ol], the AC50 is over 50 µM in experiment [1], 2.6 µM in experiment [2] and 2.7 µM in experiment [3].

In the case of `C=CCC[C@H](CO)Nc1nc(N)nc2cccnc12` [Example 72, (R)-2-((2-aminopyrido[3,2-d]pyrimidin-4-yl)amino)hex-5-en-1-ol], the AC50 was over 50 µM in experiment [1], 7.2 µM in experiment [2] and 7 µM in experiment [3].

As for `CC(F)CC[C@H](CO)Nc1nc(N)nc2cccnc12` (stereo partly drawn) [Example 73, (2R)-2-((2-aminopyrido[3,2-d]pyrimidin-4-yl)amino)-5-fluorohexan-1-ol], the AC50 in experiment [1] is over 50 µM; in experiment [2] it was 1.3 µM; in experiment [3] it was 1.3 µM.

For the molecule `Nc1nc(N[C@@H](CO)CCCCF)c2ncccc2n1` [Example 74, (R)-2-((2-aminopyrido[3,2-d]pyrimidin-4-yl)amino)-6-fluorohexan-1-ol], the half-maximal activity concentration (AC50) in experiment [1] is over 50 µM; in experiment [2], 9.1 µM; in experiment [3], 9.6 µM.

As to `CCCCC[C@H](CO)Nc1nc(N)nc2cccnc12` [Example 75, (R)-2-((2-aminopyrido[3,2-d]pyrimidin-4-yl)amino)heptan-1-ol], the AC50 in experiment [1] is 20.3 µM; in experiment [2] it was 4 µM; in experiment [3], 3.3 µM.

Regarding `CC(C)CC[C@H](CO)Nc1nc(N)nc2cccnc12` [Example 76, (R)-2-((2-aminopyrido[3,2-d]pyrimidin-4-yl)amino)-5-methylhexan-1-ol], the concentration at half-maximal activity (AC50) in experiment [1] amounted to 36.9 µM; in experiment [2], 36.9 µM; in experiment [3] it was 31.8 µM.

Consider `C=C(C)CC[C@H](CO)Nc1nc(N)nc2cccnc12` [Example 77, (R)-2-((2-aminopyrido[3,2-d]pyrimidin-4-yl)amino)-5-methylhex-5-en-1-ol], for which the concentration at half-maximal activity (AC50) in experiment [1], in experiment [2] and in experiment [3] was 43.6 µM each time.

As to `CC(F)(F)CC[C@H](CO)Nc1nc(N)nc2cccnc12` [Example 78, (R)-2-((2-aminopyrido[3,2-d]pyrimidin-4-yl)amino)-5,5-difluorohexan-1-ol], the AC50 was over 50 µM in experiment [1], 16 µM in experiment [2] and 14.2 µM in experiment [3].

Regarding `CCC(F)(F)C[C@H](CO)Nc1nc(N)nc2cccnc12` [Example 79, (R)-2-((2-aminopyrido[3,2-d]pyrimidin-4-yl)amino)-4,4-difluorohexan-1-ol], the AC50 is over 50 µM in experiment [1], 9.1 µM in experiment [2] and 11.5 µM in experiment [3].

Regarding `CCC[C@](C)(CO)Nc1nc(N)nc2cccnc12` [Example 80, (R)-2-((2-aminopyrido[3,2-d]pyrimidin-4-yl)amino)-2-methylpentan-1-ol], the AC50 in experiment [1] was over 50 µM; in experiment [2], 2.7 µM; in experiment [3], 2.4 µM.

Turning to `C=CC[C@](C)(CO)Nc1nc(N)nc2cccnc12` [Example 81, (R)-2-((2-aminopyrido[3,2-d]pyrimidin-4-yl)amino)-2-methylpent-4-en-1-ol], the half-maximal activity concentration (AC50) in experiment [1] is over 50 µM; in experiment [2], 7.6 µM; in experiment [3], 7.8 µM.

As to `CCCC[C@H](CO)Nc1nc(N)nc2cc(Br)cnc12` [Example 82, (R)-2-((2-amino-7-bromopyrido[3,2-d]pyrimidin-4-yl)amino)hexan-1-ol], the concentration at half-maximal activity (AC50) is over 50 µM in experiment [1], 16.6 µM in experiment [2] and 14.3 µM in experiment [3].

For the molecule `C=CCC[C@](C)(CO)Nc1nc(N)nc2cccnc12` [Example 83, (R)-2-((2-aminopyrido[3,2-d]pyrimidin-4-yl)amino)-2-methylhex-5-en-1-ol], the half-maximal activity concentration (AC50) in experiment [1] stood at 43.1 µM; in experiment [2] it was 1.7 µM; in experiment [3] it was 1.8 µM.

On to `C=CCC[C@](C)(CO)Nc1nc(N)nc2cc(F)cnc12` [Example 84, (R)-2-((2-amino-7-fluoropyrido[3,2-d]pyrimidin-4-yl)amino)-2-methylhex-5-en-1-ol], for which the half-maximal activity concentration (AC50) is over 50 µM in experiment [1], 3 µM in experiment [2] and 3.9 µM in experiment [3].
